# Source: patent US11452682B2, “Toothpaste composition for alleviating dentin hyperesthesia” (HYSENSBIO, priority 2018, dated 2022)
# System: DSPP gene
# Assay: mRNA level of DSPP gene in MDPC-23 cells by RT-PCR and real-time PCR
# Assay type: cell-based, mouse
# Conditions: cultured 48 hours with peptide, relative ratio to mRNA level in untreated control, Gapdh internal control, repeated three times
# Method: The MDPC-23 cells cultured in Example 2-1 were treated with the peptides of each group synthesized in Example 1, then cultured for 48 hours. The mRNA level of the DSPP, an odontoblast differentiation marker gene, expressed in the MDPC-23 cells were measured, and the measured mRNA level of each DSPP gene was converted into a relative ratio to the mRNA level of the DSPP gene measured in control (Tables 13 to 24). In addition, the average value of the mRNA level of the DSPP gene measured according to the peptides of each group was compared (FIG. 1B). At this time, as a control, MDPC-23 cells that were not treated with the peptide promoting differentiation of odontoblast were used.
# The expression level of the DSPP gene was measured through RT-PCR and real-time PCR analysis: Specifically, total RNA was extracted from the MDPC-23 cells using TRIzol reagent. 2 μg of the total RNA, 1 μl of reverse transcriptase, and 0.5 μg of oligo (oligo; dT) were used to synthesize cDNA. The synthesized cDNA was used in a real-time polymerase chain reaction. The real-time polymerase chain reaction was performed on an ABI PRISM 7500 sequence detection system (Applied Biosystems) and an SYBR GREEN PCR Master Mix (Takara, Japan). The real-time polymerase chain reaction was performed under conditions of 94° C., 1 min; 95° C., 15 sec; 60° C., 34 sec for 40 cycles. Results were analyzed by a comparative cycle threshold (CT) method. At this time, the Gapdh gene was used as the internal control group, and the measured value was repeated three times. The mean value and standard deviation value thereof were used.
row,Substance,mRNA level of Dspp gene Mean
1,65 (KYKQRKKNKY; Novel peptide) [compound 65],1.723
2,66 (KYKQRKRNKY; Novel peptide) [compound 66],1.627
3,67 (KYKQRRKNKY; Novel peptide) [compound 67],1.777
4,68 (KYKQRRRNKY; Novel peptide) [compound 68],1.432
5,69 (KYKQKKKNKY; Novel peptide) [compound 69],2.011
6,70 (KYKQKRKNKY; Novel peptide) [compound 70],1.927
7,71 (KYKQKKRNKY; Novel peptide) [compound 71],1.879
8,72 (KYKQKRRNKY; Novel peptide) [compound 72],2.011
9,73 (KYKQRKKSKY; Novel peptide) [compound 73],2.035
10,74 (KYKQRKRSKY; Novel peptide) [compound 74],2.011
11,75 (KYKQRRKSKY; Novel peptide) [compound 75],1.997
12,76 (KYKQRRRSKY; Novel peptide) [compound 76],2.351
13,77 (KYKQKKKSKY; Novel peptide) [compound 77],1.729
14,78 (KYKQKRKSKY; Novel peptide) [compound 78],2.635
15,79 (KYKQKKRSKY; Novel peptide) [compound 79],2.231
16,80 (KYKQKRRSKY; Novel peptide) [compound 80],1.837

row,Substance,mRNA level of Dspp gene Mean
1,81 (KYKQRKKNYK; Novel peptide) [compound 81],3.092
2,82 (KYKQRKRNYK; Novel peptide) [compound 82],3.361
3,83 (KYKQRRKNYK; Novel peptide) [compound 83],3.572
4,84 (KYKQRRRNYK; Novel peptide) [compound 84],3.702
5,85 (KYKQKKKNYK; Novel peptide) [compound 85],3.67
6,86 (KYKQKRKNYK; Novel peptide) [compound 86],3.705
7,87 (KYKQKKRNYK; Novel peptide) [compound 87],3.888
8,88 (KYKQKRRNYK; Novel peptide) [compound 88],4.021
9,89 (KYKQRKKSYK; Novel peptide) [compound 89],4.211
10,90 (KYKQRKRSYK; Novel peptide) [compound 90],4.811
11,91 (KYKQRRKSYK; Novel peptide) [compound 91],4.362
12,92 (KYKQRRRSYK; Novel peptide) [compound 92],4.211
13,93 (KYKQKKKSYK; Novel peptide) [compound 93],4.525
14,94 (KYKQKRKSYK; Novel peptide) [compound 94],3.836
15,95 (KYKQKKRSYK; Novel peptide) [compound 95],4.62
16,96 (KYKQKRRSYK; Novel peptide) [compound 96],5.211
